Measured values reported in patent US10517867B2, “Posaconazole derivative, pharmaceutical composition and use thereof” (priority 2016, dated 2019).
Like-named read-outs stand apart in the source and are kept apart here.

How the values were obtained:
[1] = system: Candida albicans ATCC10231; assay: Candida albicans vaginitis in mice, intragastric administration; assay type: in vivo, KM mice; details: logarithm of the CFU values, mean ± SD of 20 mice, 20 mg/kg
[2] = system: Candida albicans ATCC10231; assay: Systemic fungal infection in mice, intragastric administration; assay type: in vivo, ICR mice; details: for responders at 20 mg/kg: Candida albicans, ATCC10231, po
[3] = system: Candida albicans ATCC10231; assay: Candida albicans vaginitis in mice, intravenous administration; details: logarithm of the CFU values, mean ± SD of 20 mice, 20 mg/kg
Description: KM mice, weighing 18-22 g, female, provided by Hubei Experimental Animal Center.
The standard strain of Candida albicans was purchased from the American Type Culture
Collection, strain number ATCC10231.
Prior to being infected with Candida albicans, animals in each group were given subcutaneous injections of 0.5 ml of estradiol benzoate (2 mg/ml) for 6 consecutive days to allow them to enter the estrus phase. Injections were continued once every 2 days until the completion of the experiment. After 6 days, 20 μl of Candida albicans solution in a concentration of 3.5×10^6 CFU/ml was injected vaginally into each mouse, causing a vaginal infection model. From the first day after infection, each group of animals was given 20 mg/kg of the corresponding drug (calculated as posaconazole) in the tail vein at an administration volume of 0.1 ml/10 g once a day for 5 consecutive days. The model group was given an equal volume of solvent (physiological saline). On the 3rd and 5th days after infection, the vagina of mice were wiped with sterile cotton swabs. The cotton swabs were soaked in 0.9 ml physiological saline. The fungal solutions were diluted to 10-fold increments to give a series of concentrations, and then 100 μl of each concentration of the bacteria solutions was taken and inoculated on Sabourand's dextrose agar solid medium containing 0.5% (W/V) chloramphenicol to observe the fungal load of Candida albicans on the vagina.

[4] = system: Aspergillus Fumigutus (AF) strains; assay: Aspergillus fumigatus keratitis in rats, intravenous administration; details: 10 mg/kg tail vein once daily for 5 days; mean ± SD of 10 rats
[5] = Determination of solubility in deionized water (HPLC, external standard); details: 25±2° C., after 30 min
[6] = system: Aspergillus fumigatus AF293; assay: Lung Aspergillus fumigatus infection in immunosuppressed mice, intravenous administration; details: 20 mg/kg tail vein once daily for 5 days
Description: ICR male mice were injected intraperitoneally with cyclophosphamide 150 mg/kg and injected subcutaneously with dexamethasone 150 mg/kg for 10 consecutive days. At the same time, the blood was taken to measure the changes of peripheral white blood cells and neutrophils, and mice with neutrophils consistently lower than 100/μl were selected as successfully immunosuppressed mice. Immediately after the last injection, the mice were anesthetized with ethyl ether, and mice were transferred from the initial state of excitement to inhibition. After their bodies were relaxed, the mice were immediately taken. Left hand was used to grasp the mouse to make it stand upright, the middle finger pressed the mouth so that it could breath only with the nose, and the ring finger gently pressed the abdomen to move the diaphragm muscle upward. 30 μl of conidia suspension (Aspergillus fumigatus AF293, 3×10^6 conidia) was sent to the nostrils of the anesthetized mice by a micropipette to allow spontaneous inhalation. After the mouse returned to normal breathing, it was returned to the cage. […] The death of the mice was observed and the survival time was recorded. Seven days later, the mice were sacrificed and their lung tissues were taken to observe the fungal loads of Aspergillus fumigatus in the lungs of the mice.

[7] = system: Aspergillus fumigatus AF293; assay: Lung Aspergillus fumigatus infection in immunosuppressed mice, intragastric administration; details: mouse lung tissue, seven days later; 20 mg/kg intragastric once daily for 5 days; mean ± SD; 20 mg/kg
Description: Aspergillus fumigatus AF293, from the Guangdong Provincial Microbial Culture Collection Center.
ICR male mice were injected intraperitoneally with cyclophosphamide 150 mg/kg and injected subcutaneously with dexamethasone 150 mg/kg for 10 consecutive days. At the same time, the blood was taken to measure the changes of peripheral white blood cells and neutrophils, and mice with neutrophils consistently lower than 100/μl were selected as successfully immunosuppressed mice. Immediately after the last injection, the mice were anesthetized with ethyl ether, and mice were transferred from the initial state of excitement to inhibition. After their bodies were relaxed, the mice were immediately taken. Left hand was used to grasp the mouse to make it stand upright, the middle finger pressed the mouth so that it could breath only with the nose, and the ring finger gently pressed the abdomen to move the diaphragm muscle upward. 30 μl of conidia suspension (Aspergillus fumigatus AF293, 3×10^6 conidia) was sent to the nostrils of the anesthetized mice by a micropipette to allow spontaneous inhalation. After the mouse returned to normal breathing, it was returned to the cage. […] Seven days later, the mice were sacrificed and their lung tissues were taken to observe the fungal loads of Aspergillus fumigatus in the lungs of the mice.

physchem = details: 25 °C, water, thermodynamic from solid
[8] = In vitro metabolic stability in human plasma; assay type: in vitro ADME; details: human, plasma, 37° C., 10 μM compound, read-out: Human plasma T1/2
Procedure, shortened: (§1)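 Human or rat plasma, preincubated 5 min at 37 °C, or intestinal S9 at 37 °C, spiked from 1 mM stock; triplicates sampled at 1, 2, 5, 15 and 30 min into cold internal standard. HPLC quantitation; half-life by non-compartmental analysis.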

[9] = In vitro metabolic stability in human intestine S9; assay type: in vitro ADME; details: human; 37° C., 10 μM compound, 1 mg/mL S9, NADPH regeneration system; read-out: Human intestine S9 T1/2
Procedure, shortened: as §1

[10] = In vitro metabolic stability in rat plasma; assay type: in vitro ADME; details: rat, plasma, 37° C., 10 μM compound, read-out: Rat plasma T1/2
Procedure, shortened: as §1

[11] = In vitro metabolic stability in rat intestine S9; assay type: in vitro ADME; details: rat, pH 7.4; 37° C., 10 μM compound, 1 mg/mL S9, NADPH regeneration system; read-out: Rat intestine S9 T1/2
Procedure, shortened: as §1

With `CC[C@@H]([C@H](C)O)n1ncn(-c2ccc(N3CCN(c4ccc(OC[C@@H]5CO[C@@](Cn6c[n+](C(C)OC(=O)N(C)c7ncccc7COC(=O)[C@@H](N)CCCN)cn6)(c6ccc(F)cc6F)C5)cc4)CC3)cc2)c1=O` (stereo partly shown) [ST0011] the “vaginal fungal load of mice, day 15” value ([1]; 20 mg/kg intragastric once a day for 15 days, day 15) was 2.81 ± 0.27, the “vaginal fungal load of mice, day 3” value ([1]; 20 mg/kg intragastric once a day, day 3) was 4.18 ± 0.27 and the “vaginal fungal load of mice, day 5” value ([1]; 20 mg/kg intragastric once a day, day 5) was 4.35 ± 0.47. For the same molecule, the “vaginal fungal load of mice, day 7” value ([1]; 20 mg/kg intragastric once a day, day 7) was 3.85 ± 0.67, the “vaginal fungal load of mice, day 11” value ([1]; 20 mg/kg intragastric once a day, day 11) was 3.29 ± 0.20 and the “survival rate of mice, day 1” value ([2]; 20 mg/kg intragastric once daily for 5 days, day 1) was 100%. For the same molecule, the “survival rate of mice, day 2” value ([2]; 20 mg/kg intragastric once daily for 5 days, day 2) was 100%, the “survival rate of mice, day 3” value ([2]; 20 mg/kg intragastric once daily for 5 days, day 3) was 90% and the “survival rate of mice, day 4” value ([2]; 20 mg/kg intragastric once daily for 5 days, day 4) was 80%. The “survival rate of mice, day 5” value ([2]; 20 mg/kg intragastric once daily for 5 days, day 5) was 70%, the “survival rate of mice, day 6” value ([2]; 20 mg/kg intragastric once daily for 5 days, day 6) was 60% and the “survival rate of mice, day 7” value ([2]; 20 mg/kg intragastric once daily for 5 days, day 7) was 60%. The “vaginal fungal load of mice, day 5” value ([3]; 20 mg/kg tail vein once a day for 5 days, day 5 after infection) was 3.75 ± 0.47, the “vaginal fungal load of mice, day 3” value ([3]; 20 mg/kg tail vein once a day, day 3 after infection) was 4.09 ± 0.39 and the “Amount of active fungi in cornea at day 7” value [4] was 1.79 ± 0.44 10^3 CFU/ml. For the same molecule, the Solubility [5] was greater than 50 mg/mL, the “survival rate of mice, day 1” value ([6]; day 1) was 100% and the “survival rate of mice, day 2” value ([6]; day 2) was 100%. The “survival rate of mice, day 3” value ([6]; day 3) was 100%, the “survival rate of mice, day 4” value ([6]; day 4) was 100% and the “survival rate of mice, day 5” value ([6]; day 5) was 90%. For the same molecule, the “survival rate of mice, day 6” value ([6]; day 6) was 90%, the lung fungal load ([6]; mouse lung tissue, seven days later, mean ± SD, 20 mg/kg) was 1.46 ± 0.27 10^4 CFU/ml and the lung fungal load [7] was 3.47 ± 0.71 10^4 CFU/ml.

Work on `CC[C@@H]([C@H](C)O)n1ncn(-c2ccc(N3CCN(c4ccc(OC[C@@H]5CO[C@@](Cn6c[n+](C(C)OC(=O)OP(=O)(O)O)cn6)(c6ccc(F)cc6F)C5)cc4)CC3)cc2)c1=O.[Na+].[Na+]` (stereo partly shown) [ST0039] yielded a Solubility (physchem) greater than 50 mg/mL.

In the case of `CC[C@@H](C(C)OC(=O)OC(C)OC(=O)CCOP(=O)([O-])[O-])n1ncn(-c2ccc(N3CCN(c4ccc(OC[C@@H]5CO[C@@](Cn6cncn6)(c6ccc(F)cc6F)C5)cc4)CC3)cc2)c1=O.[Na+].[Na+]` (stereo partly shown) [ST0066], the half-life at 10 µM [8] is reported as 11.3 ± 2.27 min, the half-life at 10 µM [9] is reported as 40.4 ± 5.21 min and the half-life at 10 µM [10] is reported as 12.6 ± 4.54 min. It also gave a half-life at 10 µM [11] of 36.6 ± 8.66 min, a responders at 20 mg/kg ([2]; 24 h, read-out: survival rate of mice, day 1, 20 mg/kg intragastric once daily for 5 days, day 1) of 80% and a responders at 20 mg/kg ([2]; 48 h, read-out: survival rate of mice, day 2, 20 mg/kg intragastric once daily for 5 days, day 2) of 80%. For the same molecule, the responders at 20 mg/kg ([2]; 72 h, read-out: survival rate of mice, day 3, 20 mg/kg intragastric once daily for 5 days, day 3) was 70%, the responders at 20 mg/kg ([2]; 96 h, read-out: survival rate of mice, day 4, 20 mg/kg intragastric once daily for 5 days, day 4) was 70% and the responders at 20 mg/kg ([2]; 120 h, read-out: survival rate of mice, day 5, 20 mg/kg intragastric once daily for 5 days, day 5) was 70%. The responders at 20 mg/kg ([2]; 144 h, read-out: survival rate of mice, day 6, 20 mg/kg intragastric once daily for 5 days, day 6) was 60%, the responders at 20 mg/kg ([2]; 168 h, read-out: survival rate of mice, day 7, 20 mg/kg intragastric once daily for 5 days, day 7) was 60% and the Solubility (physchem) was greater than 50 mg/mL.
